In PubChem BioAssay (NCI):
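The concentration for 50% growth inhibition is given as GI50. Definition used: TGI = concentration required for complete inhibition of growth.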

Legend:
Assay in all cases: NCI-60 cell line screen, 384-well format
SF-539 CNS = system: SF-539 CNS
OVCAR-3 ovarian = system: OVCAR-3 ovarian
HOP-92 NSCLC = system: HOP-92 NSCLC
RXF 393 renal = system: RXF 393 renal
MDA-MB-231 breast = system: MDA-MB-231 breast
MALME-3M melanoma = system: MALME-3M melanoma
TK-10 renal = system: TK-10 renal
SW-620 colon = system: SW-620 colon
SNB-19 CNS = system: SNB-19 CNS
MDA-MB-468 breast = system: MDA-MB-468 breast
DU-145 prostate = system: DU-145 prostate
SK-OV-3 ovarian = system: SK-OV-3 ovarian
OVCAR-4 ovarian = system: OVCAR-4 ovarian
BT-549 breast = system: BT-549 breast
NCI-H23 lung = system: NCI-H23 lung
OVCAR-5 ovarian = system: OVCAR-5 ovarian
MDA-MB-435 melanoma = system: MDA-MB-435 melanoma
A498 renal = system: A498 renal
HL-60(TB) leukemia = system: HL-60(TB) leukemia
SF-268 CNS = system: SF-268 CNS
HS 578T breast = system: HS 578T breast
NCI-H460 NSCLC = system: NCI-H460 NSCLC
SNB-75 CNS = system: SNB-75 CNS
U251 glioblastoma = system: U251 glioblastoma
MCF7 breast = system: MCF7 breast
UACC-62 melanoma = system: UACC-62 melanoma
M14 melanoma = system: M14 melanoma
OVCAR-8 ovarian = system: OVCAR-8 ovarian
COLO 205 colon = system: COLO 205 colon
NCI-H322M lung = system: NCI-H322M lung
SK-MEL-2 melanoma = system: SK-MEL-2 melanoma
EKVX NSCLC = system: EKVX NSCLC
CAKI-1 renal = system: CAKI-1 renal
KM12 colon = system: KM12 colon
HCT-15 colon = system: HCT-15 colon
IGROV1 ovarian = system: IGROV1 ovarian
786-0 renal = system: 786-0 renal
RPMI-8226 leukemia = system: RPMI-8226 leukemia
ACHN renal = system: ACHN renal
UACC-257 melanoma = system: UACC-257 melanoma
SK-MEL-5 melanoma = system: SK-MEL-5 melanoma
A549 NSCLC = system: A549 NSCLC
SR leukemia = system: SR leukemia
CCRF-CEM leukemia = system: CCRF-CEM leukemia
NCI-H522 lung = system: NCI-H522 lung
SF-295 CNS = system: SF-295 CNS
SK-MEL-28 melanoma = system: SK-MEL-28 melanoma
HCC-2998 colon = system: HCC-2998 colon
T-47D breast = system: T-47D breast
NCI-H226 lung = system: NCI-H226 lung
NCI/ADR-RES ovarian = system: NCI/ADR-RES ovarian
MOLT-4 leukemia = system: MOLT-4 leukemia
PC-3 prostate = system: PC-3 prostate
HT29 colon = system: HT29 colon
HOP-62 NSCLC = system: HOP-62 NSCLC
SN12C renal = system: SN12C renal

## CNC(=O)c1ccc2cc(C3(O)CCn4cncc43)ccc2c1 (configuration not stated)
SF-539 CNS
  GI50: > 100 µM
  TGI: > 100 µM
OVCAR-3 ovarian
  GI50: > 100 µM
  TGI: > 100 µM
HOP-92 NSCLC
  GI50: > 100 µM
  TGI: > 100 µM
RXF 393 renal
  GI50: > 100 µM
  TGI: > 100 µM
MDA-MB-231 breast
  GI50: > 100 µM
  TGI: > 100 µM
MALME-3M melanoma
  GI50: > 100 µM
  TGI: > 100 µM
TK-10 renal
  GI50: > 100 µM
  TGI: > 100 µM
SW-620 colon
  GI50: > 100 µM
  TGI: > 100 µM
SNB-19 CNS
  GI50: > 100 µM
  TGI: > 100 µM
MDA-MB-468 breast
  GI50: > 100 µM
  TGI: > 100 µM
DU-145 prostate
  GI50: > 100 µM
  TGI: > 100 µM
SK-OV-3 ovarian
  GI50: > 100 µM
  TGI: > 100 µM
OVCAR-4 ovarian
  GI50: > 100 µM
  TGI: > 100 µM
BT-549 breast
  GI50: > 100 µM
  TGI: > 100 µM
NCI-H23 lung
  GI50: > 100 µM
  TGI: > 100 µM
OVCAR-5 ovarian
  GI50: > 100 µM
  TGI: > 100 µM
MDA-MB-435 melanoma
  GI50: > 100 µM
  TGI: > 100 µM
A498 renal
  GI50: > 100 µM
  TGI: > 100 µM
HL-60(TB) leukemia
  GI50: > 100 µM
  TGI: > 100 µM
SF-268 CNS
  GI50: > 100 µM
  TGI: > 100 µM
HS 578T breast
  GI50: > 100 µM
  TGI: > 100 µM
NCI-H460 NSCLC
  GI50: > 100 µM
  TGI: > 100 µM
SNB-75 CNS
  GI50: > 100 µM
  TGI: > 100 µM
U251 glioblastoma
  GI50: > 100 µM
  TGI: > 100 µM
MCF7 breast
  GI50: > 100 µM
  TGI: > 100 µM
UACC-62 melanoma
  GI50: > 100 µM
  TGI: > 100 µM
M14 melanoma
  GI50: > 100 µM
  TGI: > 100 µM
OVCAR-8 ovarian
  GI50: > 100 µM
  TGI: > 100 µM
COLO 205 colon
  GI50: > 100 µM
  TGI: > 100 µM
NCI-H322M lung
  GI50: > 100 µM
  TGI: > 100 µM
SK-MEL-2 melanoma
  GI50: > 100 µM
  TGI: > 100 µM
EKVX NSCLC
  GI50: > 100 µM
  TGI: > 100 µM
CAKI-1 renal
  GI50: > 100 µM
  TGI: > 100 µM
KM12 colon
  GI50: > 100 µM
  TGI: > 100 µM
HCT-15 colon
  GI50: > 100 µM
  TGI: > 100 µM
IGROV1 ovarian
  GI50: > 100 µM
  TGI: > 100 µM
786-0 renal
  GI50: > 100 µM
  TGI: > 100 µM
RPMI-8226 leukemia
  GI50: > 100 µM
  TGI: > 100 µM
ACHN renal
  GI50: > 100 µM
  TGI: > 100 µM
UACC-257 melanoma
  GI50: > 100 µM
  TGI: > 100 µM
SK-MEL-5 melanoma
  GI50: > 100 µM
  TGI: > 100 µM
A549 NSCLC
  GI50: > 100 µM
  TGI: > 100 µM
SR leukemia
  GI50: > 100 µM
  TGI: > 100 µM
CCRF-CEM leukemia
  GI50: > 100 µM
  TGI: > 100 µM
NCI-H522 lung
  GI50: > 100 µM
  TGI: > 100 µM
SF-295 CNS
  GI50: > 100 µM
  TGI: > 100 µM
SK-MEL-28 melanoma
  GI50: > 100 µM
  TGI: > 100 µM
HCC-2998 colon
  GI50: > 100 µM
  TGI: > 100 µM
T-47D breast
  GI50: > 100 µM
  TGI: > 100 µM
NCI-H226 lung
  GI50: > 100 µM
  TGI: > 100 µM
NCI/ADR-RES ovarian
  GI50: > 100 µM
  TGI: > 100 µM
MOLT-4 leukemia
  GI50: > 100 µM
  TGI: > 100 µM
PC-3 prostate
  GI50: > 100 µM
  TGI: > 100 µM
HT29 colon
  GI50: > 100 µM
  TGI: > 100 µM
HOP-62 NSCLC
  GI50: > 100 µM
  TGI: > 100 µM
SN12C renal
  GI50: > 100 µM
  TGI: > 100 µM
